Patent US20020028938A1, “Prostaglandin endoperoxide H synthase biosynthesis inhibitors” (priority 1997, published 2002)

Experiments:
[1] = target: T1, Human Whole Platelet Cyclooxygenase-1 (Homo sapiens, UniProt P23219); experiment: Human Whole Platelet Cyclooxygenase-1 assay (HWPX); type: cell-based; conditions: for IC50: read-out: HWPX IC50 (parenthetical value)
T1 construct: from tissue; host or cells: human blood: isolated platelets (A4) or heparinised whole blood (A9)
Outline: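 Washed platelets from healthy-donor ACD blood were pre-incubated with compound for 10 min, then stimulated with calcium ionophore A23187 (8.8 μM final) for 10 min. Reaction stopped with cold 6 mM EDTA; thromboxane in supernatants quantified with a commercial kit.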

[2] = system: prostaglandin biosynthesis in vivo (pleural lavage eicosanoids); experiment: Rat carrageenan pleural inflammation (CIP) model; conditions: for inhibition in vivo at 10 mg/kg: 4 h, read-out: CIP % Inhib. @ 10 mpk
Experimental: (§1) For oral administration, test compounds were suspended on the day of use in 100% polyethyleneglycol (PEG 400) with a motorized homogenizer equipped with a Teflon-coated pestle (TRI-R Instrument, Jamaica, N.Y.).
(§2) To compare the mean responses of the treatment groups, analysis of variance was applied. Percent inhibition values were determined by comparing the individual treatment mean values to the mean of the control group. Linear regression was used to estimate IC50's/ED50's in appropriate assays.
Pleural inflammation was induced in male adrenalectomized Sprague-Dawley rats following the method of Vinegar et al., Fed. Proc. 1976, 35, 2447-2456. Animals were orally dosed with experimental compounds, 30 minutes prior to the intrapleural injection of 2% lambda carrageenan (Sigma Chemical Co., St. Louis Mo.). Four hours later the animals were euthanized and the pleural cavities lavaged with ice cold saline. The lavage fluid was then added to two volumes of ice cold methanol (final methanol concentration 66%) to lyse cells and precipitate protein. Eicosanoids were determined by EIA as described above.

[3] = target: T2, recombinant human Cox-1 (r-hu Cox1) (Homo sapiens, UniProt P23219); experiment: Recombinant human PGHS-1 enzyme assay (RHUCX1); type: biochemical; conditions: for inhibition at 100 µM / inhibition at 200 µM: read-out: RHUCX1 % Inh. at Dose; for IC50: read-out: RHUCX1 IC50 (parenthetical value)
T2 construct: made in house; host or cells: baculovirus/Sf9 insect cells (microsomes)
Outline: (§3)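 Recombinant enzyme reaction ran 2.5 minutes at room temperature, then was quenched with HCl and neutralized with NaOH. PGE2 formed with and without drug was quantified by EIA against standards in the same milieu. Percent inhibition versus control mean; IC50 by linear regression.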

[4] = system: carrageenan induced paw edema; experiment: Carrageenan induced paw edema (CPE) in rats; type: in vivo; conditions: 10 mpk oral, rat, 3 hours after carrageenan; read-out: CPE % Inhib. @ 10 mpk
Experimental: as §1, §2
Hingpaw edema was […] in male rats as described by Winter et al., Proc. Soc. Exp. Biol. Med., 1962, 111, 544. Briefly, male Sprague-Dawley rats weighing between 170 and 190 g were administered test compounds orally 1 hour prior to the subplantar injection of 0.1 ml of 1% sodium carrageenan (lambda carrageenan, Sigma Chemical Co., St Louis, Mo.) into the right hindpaw. Right paw volumes (ml) were measured immediately following injection of carrageenan for baseline volume measurements using a Buxco plethysmograph (Buxco Electronics, Inc., Troy, N.Y.). Three hours after the injection of carrageenan, right paws were remeasured and paw edema calculated for each rat by subtracting the zero time reading from the 3 hour reading. Data are reported as mean percent inhibition +/−SEM. Statistical significance of results was analyzed by Dunnetts multiple comparison test where p<0.05 was considered statistically significant.

[5] = target: T3, recombinant human Cox-2 (r-hu Cox-2) (Homo sapiens, UniProt P35354); experiment: Recombinant human PGHS-2 enzyme assay (RHUCX2); type: biochemical; conditions: for IC50: read-out: RHUCX2 IC50 (parenthetical value)
T3 construct: made in house; host or cells: baculovirus/Sf9 insect cells (microsomes)
T3 sequence (P35354 18-604): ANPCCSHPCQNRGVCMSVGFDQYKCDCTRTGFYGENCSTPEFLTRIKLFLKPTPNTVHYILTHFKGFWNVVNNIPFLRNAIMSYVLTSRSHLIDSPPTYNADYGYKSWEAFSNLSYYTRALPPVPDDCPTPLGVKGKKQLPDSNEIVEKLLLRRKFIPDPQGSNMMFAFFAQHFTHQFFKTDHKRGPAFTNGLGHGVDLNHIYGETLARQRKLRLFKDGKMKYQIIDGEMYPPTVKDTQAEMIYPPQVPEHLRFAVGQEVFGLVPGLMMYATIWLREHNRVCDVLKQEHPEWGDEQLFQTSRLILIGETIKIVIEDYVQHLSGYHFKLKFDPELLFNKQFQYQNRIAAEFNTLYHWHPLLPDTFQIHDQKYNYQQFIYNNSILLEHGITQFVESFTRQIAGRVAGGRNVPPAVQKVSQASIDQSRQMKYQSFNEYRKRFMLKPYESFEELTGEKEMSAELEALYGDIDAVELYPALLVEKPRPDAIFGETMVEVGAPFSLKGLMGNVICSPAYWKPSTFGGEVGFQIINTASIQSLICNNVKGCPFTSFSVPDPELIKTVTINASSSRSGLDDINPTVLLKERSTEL
Outline: as §3

[6] = system: air pouch prostaglandin biosynthesis (Cox-2); experiment: Carrageenan induced air pouch prostaglandin biosynthesis model (CAP); type: in vivo, rat; conditions: for inhibition in vivo at 3 mg/kg: 4 h, 3 mpk, rat, read-out: CAP % Inhib. @ 3 mpk; for ED50: Rattus norvegicus
Outline: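 Male Sprague Dawley rats with dorsal air pouches (20 mL air day 0, 10 mL day 3) received 0.2% lambda carrageenan in saline into the pouch on day 7. Compounds dosed at 0.1 to 10 mg/kg 30 min before carrageenan; pouch lavaged 4 h later, prostaglandins measured by EIA. Percent inhibition versus control mean; ED50 by linear regression.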

[7] = target: T4, human amnionic whole cell cyclooxygenase-2 (WISH cells) (Homo sapiens, UniProt P35354); experiment: IL-1β induced PGE2 production in WISH cells; type: cell-based; conditions: read-out: Wish IC50 (parenthetical value)
T4 construct: endogenous in cells; host or cells: human amnionic WISH cells, induced with IL-1beta
T4 sequence (P35354 18-604): T3 sequence (P35354 18-604)
Outline: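 Confluent (80%) WISH cells were stimulated with 5 ng/ml IL-1β in serum-free Neuman-Tytell medium, with or without test compound in DMSO (0.01% v/v). PGE2 in the culture medium was measured by EIA against standards prepared in the same medium, read by optical density.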

[8] = 0.1 μM, read-out: RHUCX2 % Inh. at Dose
[9] = 1 μM, read-out: RHUCX2 % Inh. at Dose
[10] = read-out: RHUCX2 % Inh. at Dose

T2 sequence (P23219 24-599): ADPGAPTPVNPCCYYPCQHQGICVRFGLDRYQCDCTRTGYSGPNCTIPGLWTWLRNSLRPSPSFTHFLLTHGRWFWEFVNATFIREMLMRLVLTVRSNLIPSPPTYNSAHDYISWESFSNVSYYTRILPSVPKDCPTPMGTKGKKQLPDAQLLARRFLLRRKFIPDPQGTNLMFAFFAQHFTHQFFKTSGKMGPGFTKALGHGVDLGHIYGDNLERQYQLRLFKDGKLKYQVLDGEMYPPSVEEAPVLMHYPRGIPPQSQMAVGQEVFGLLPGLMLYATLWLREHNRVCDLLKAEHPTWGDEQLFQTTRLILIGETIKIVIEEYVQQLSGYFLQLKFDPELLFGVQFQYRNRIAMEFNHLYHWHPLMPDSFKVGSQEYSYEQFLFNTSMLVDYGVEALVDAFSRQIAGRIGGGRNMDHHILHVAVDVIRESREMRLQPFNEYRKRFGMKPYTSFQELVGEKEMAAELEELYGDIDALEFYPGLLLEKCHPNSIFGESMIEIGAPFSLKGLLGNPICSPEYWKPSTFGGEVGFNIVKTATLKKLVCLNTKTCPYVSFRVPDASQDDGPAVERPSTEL
T1 sequence (P23219 24-599): as above

| Compound | IC50 [1] [nM] | inhibition in vivo at 10 mg/kg ([2]; 10 mpk oral) [%] | inhibition at 100 µM ([3]; 100 μM) [%] | melting point [°C] | inhibition in vivo at 10 mg/kg [4] [%] | IC50 [5] [nM] | inhibition in vivo at 3 mg/kg [6] [%] | IC50 [7] [nM] | other results |
| --- | --- | --- | --- | --- | --- | --- | --- | --- | --- |
| CS(=O)(=O)c1ccc(-c2cnn(Cc3ccccc3)c(=O)c2-c2ccc(F)cc2)cc1 [Example 10, 2-Benzyl-4-(4-fluorophenyl)-5-[4-(methylsulfonyl)phenyl]-3(2H)-pyridazinone] | 4100 | 44 | 2 | 101 to 103 |  |  |  |  |  |
| CS(=O)(=O)c1ccc(-c2cnn(-c3ccccc3)c(=O)c2-c2ccc(F)cc2)cc1 [Example 12, 2-Phenyl-4-(4-fluorophenyl)-5-[4-(methylsulfonyl)phenyl]-3(2H)-pyridazinone] |  | 42 | 0 | 219 to 220 | 25 |  |  |  | inhibition at 0.1 µM [5, 8]: 9%; inhibition at 1 µM [5, 9]: 77%; inhibition at 10 µM ([5]; 10 μM, read-out: RHUCX2 % Inh. at Dose): 97% |
| CS(=O)(=O)c1ccc(-c2cnn(CC(F)(F)F)c(=O)c2-c2ccc(F)cc2)cc1 [Example 34, 2-(2,2,2-Trifluoroethyl)-4-(4-fluorophenyl)-5-[4-(methylsulfonyl)-phenyl]-3(2H)-pyridazinone] |  | 36 | 16 | 177 to 179 | 31 | 920 |  |  |  |
| CS(=O)(=O)c1ccc(-c2cnn(CC(F)(F)F)c(=O)c2-c2ccc(F)c(Cl)c2)cc1 [Example 54, 2-(2,2,2-Trifluoroethyl)-4-(3-chloro-4-fluorophenyl)-5-[4-(methylsulfonyl)phenyl]-3(2H)-pyridazinone] |  | 31 | 0 | 165 to 166 | 30 |  |  |  | inhibition at 0.1 µM [5, 8]: 58%; inhibition at 1 µM [5, 9]: 95% |
| CS(=O)(=O)c1ccc(-c2cnn(CC(F)(F)F)c(=O)c2-c2ccc(Cl)c(F)c2)cc1 [Example 67] |  |  |  |  |  |  |  |  | CIP % Inhib. ([2]; 3 mpk oral): 40 @ 3 mpk % |
| CC(C)Oc1c(-c2ccc(S(C)(=O)=O)cc2)cnn(Cc2ccccc2)c1=O [Example 74, 2-Benzyl-4-(2-propoxy)-5-[4-(methylsulfonyl)phenyl]-3(2H)-pyridazinone] |  | 46.5 | 11 | 109 to 111 | 18 |  |  |  |  |
| CS(=O)(=O)c1ccc(-c2cnn(-c3cccc(Br)c3)c(=O)c2-c2ccc(F)cc2)cc1 [Example 166, 2-(3-Bromophenyl)-4-(4-fluorophenyl)-5-[4-(methylsulfonyl)phenyl]-3(2H)-pyridazinone] | 9400 | 40 | 3 | 210 to 212 |  | 199 | 59 | 20 |  |
| CS(=O)(=O)c1ccc(-c2cnn(-c3cc(F)cc(F)c3)c(=O)c2-c2ccc(F)cc2)cc1 [Example 180] |  |  |  |  |  |  |  |  | CIP % Inhib. @ 10 mpk ([2]; 10 mpk oral): 34.5%; RHUCX1 % Inh. at Dose (μM) ([3]; 100 μM): 8 @ 100%; RHUCX2 % Inh. at Dose (μM) ([5]; 0.1 μM): 48 @ 0.1%; RHUCX2 % Inh. at Dose (μM) ([5]; 1 μM): 78 @ 1% |
| CC(C)COc1c(-c2ccc(S(N)(=O)=O)cc2)cnn(-c2ccc(F)c(F)c2)c1=O [Example 403, 2-(3,4-Difluorophenyl)-4-(2-methylpropoxy)-5-[4-(aminosulfonyl)phenyl]-3(2H)-pyridazinone] | 902 |  |  | 169 to 171 | 43 |  | 68.5 | 18 | ED50 [6]: 0.35 mg/kg; IC50 [3]: 151000 nM; inhibition at 0.01 µM [5, 10]: 36%; inhibition at 0.1 µM [5, 8]: 64%; inhibition at 1 µM [5, 9]: 92% |
| CC(C)(C)COc1c(-c2ccc(S(N)(=O)=O)cc2)cnn(-c2ccc(F)c(F)c2)c1=O [Example 406, 2-(3,4-Difluorophenyl)-4-(2,2-dimethylpropoxy)-5-[4-(aminosulfonyl)phenyl]-3(2H)-pyridazinone] | 1610 |  | 23 | 173 to 175 | 23 |  | 66.5 | 26 | inhibition at 0.01 µM [5, 10]: 18%; inhibition at 0.1 µM [5, 8]: 64%; inhibition at 1 µM [5, 9]: 100% |
| CC(C)CCOc1c(-c2ccc(S(N)(=O)=O)cc2)cnn(-c2ccc(F)c(F)c2)c1=O [Example 445, 2-(3,4-Difluorophenyl)-4-(3-methyl-1-butoxy)-5-[4-(aminosulfonyl)phenyl]-3(2H)-pyridazinone] |  |  |  | 149 to 151 | 15 | 69 | 73 | 25 | inhibition at 10 µM ([1]; 10 μM, read-out: HWPX % Inhib. at Dose): 22%; inhibition at 100 µM ([1]; 100 μM, read-out: HWPX % Inhib. at Dose): 100%; IC50 [3]: 56600 nM |
| CC(C)(C)COc1c(-c2ccc(S(N)(=O)=O)cc2)cnn(CC(F)(F)F)c1=O [Example 446] | 24400 |  |  | 123 to 124 | 44 | 373 | 92 | 20 | ED50 [6]: 0.5 mg/kg; inhibition at 200 µM [3]: 0% |
| CC(C)COc1c(-c2ccc(S(N)(=O)=O)cc2)cnn(CC(F)(F)F)c1=O [Example 449, 2-(2,2,2-Trifluoroethyl)-4-(2-methylpropoxy)-5-[4-(aminosulfonyl)phenyl]-3(2H)-pyridazinone] | 40000 |  |  | 170 to 172 | 23 | 129 | 76 | 89 | ED50 [6]: 1.8 mg/kg; inhibition at 200 µM [3]: 5% |
| CC(C)(O)COc1c(-c2ccc(S(N)(=O)=O)cc2)cnn(-c2ccc(F)cc2)c1=O [Example 478, 2-(4-Fluorophenyl)-4-(2-hydroxy-2-methyl-1-propoxy)-5-[4-(aminosulfonyl)phenyl]-3(2H)-pyridazinone] | 500 |  | 33 | 155 to 158 | 26 | 810 | 75 | 108 |  |
